ChEMBL document CHEMBL1201862, “PubChem BioAssay data set” (2004)
Values joined by “and” are separate entries in the source; they are usually repeats but may differ in a detail not shown here. Identical values can stand only once. Active and inactive are the calls of the source.

Tests used:
[1] = tested on: Streptococcus sp. 'group A'; assay: Streptococcus pyogenes SK(-)GAS viability under kanamycin – luminescence, BacTiterGlo, confirmation, counter-screen for streptokinase expression inhibitor project, dose response (AID 1900); format: functional, organism-based
[2] = molecular target: T1, Replicative DNA helicase DnaB (Mycobacterium tuberculosis, UniProt P9WMR3); assay: DnaB intein splicing inhibitors, dose response, biochemical, cell-free fluorescence (AID 449749); format: functional
T1 sequence (P9WMR3 whole entry): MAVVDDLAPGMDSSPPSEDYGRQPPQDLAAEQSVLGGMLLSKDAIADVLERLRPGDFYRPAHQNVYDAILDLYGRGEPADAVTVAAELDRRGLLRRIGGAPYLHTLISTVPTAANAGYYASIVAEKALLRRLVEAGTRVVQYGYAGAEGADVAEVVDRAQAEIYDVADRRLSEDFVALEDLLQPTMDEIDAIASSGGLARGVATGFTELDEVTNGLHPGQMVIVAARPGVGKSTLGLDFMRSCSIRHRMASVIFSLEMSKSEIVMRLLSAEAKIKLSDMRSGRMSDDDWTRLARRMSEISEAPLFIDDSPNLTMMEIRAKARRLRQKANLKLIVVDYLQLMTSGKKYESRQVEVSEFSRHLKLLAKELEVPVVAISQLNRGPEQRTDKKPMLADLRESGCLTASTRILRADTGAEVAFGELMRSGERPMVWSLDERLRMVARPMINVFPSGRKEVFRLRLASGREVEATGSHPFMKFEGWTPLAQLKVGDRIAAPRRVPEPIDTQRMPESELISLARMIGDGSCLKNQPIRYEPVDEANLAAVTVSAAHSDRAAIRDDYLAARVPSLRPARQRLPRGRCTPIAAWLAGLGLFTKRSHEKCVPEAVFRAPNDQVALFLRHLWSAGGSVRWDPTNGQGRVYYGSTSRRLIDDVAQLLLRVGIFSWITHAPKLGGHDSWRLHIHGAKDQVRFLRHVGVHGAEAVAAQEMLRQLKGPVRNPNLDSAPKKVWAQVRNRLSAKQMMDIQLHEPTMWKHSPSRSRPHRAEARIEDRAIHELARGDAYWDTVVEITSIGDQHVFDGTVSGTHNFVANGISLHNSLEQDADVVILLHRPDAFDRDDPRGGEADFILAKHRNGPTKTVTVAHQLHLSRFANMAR

Protein RecA = molecular target: T2, Protein RecA (Mycobacterium tuberculosis, UniProt P9WHJ3); assay: Fluorescence Cell-Free Homogeneous Dose Retest to Identify Inhibitors of RecA-Intein Splicing Activity. [Related pubchem assays (depositor defined):AID2097, AID2223, AID489010, AID492950]; format: functional
T2 sequence (P9WHJ3 whole entry): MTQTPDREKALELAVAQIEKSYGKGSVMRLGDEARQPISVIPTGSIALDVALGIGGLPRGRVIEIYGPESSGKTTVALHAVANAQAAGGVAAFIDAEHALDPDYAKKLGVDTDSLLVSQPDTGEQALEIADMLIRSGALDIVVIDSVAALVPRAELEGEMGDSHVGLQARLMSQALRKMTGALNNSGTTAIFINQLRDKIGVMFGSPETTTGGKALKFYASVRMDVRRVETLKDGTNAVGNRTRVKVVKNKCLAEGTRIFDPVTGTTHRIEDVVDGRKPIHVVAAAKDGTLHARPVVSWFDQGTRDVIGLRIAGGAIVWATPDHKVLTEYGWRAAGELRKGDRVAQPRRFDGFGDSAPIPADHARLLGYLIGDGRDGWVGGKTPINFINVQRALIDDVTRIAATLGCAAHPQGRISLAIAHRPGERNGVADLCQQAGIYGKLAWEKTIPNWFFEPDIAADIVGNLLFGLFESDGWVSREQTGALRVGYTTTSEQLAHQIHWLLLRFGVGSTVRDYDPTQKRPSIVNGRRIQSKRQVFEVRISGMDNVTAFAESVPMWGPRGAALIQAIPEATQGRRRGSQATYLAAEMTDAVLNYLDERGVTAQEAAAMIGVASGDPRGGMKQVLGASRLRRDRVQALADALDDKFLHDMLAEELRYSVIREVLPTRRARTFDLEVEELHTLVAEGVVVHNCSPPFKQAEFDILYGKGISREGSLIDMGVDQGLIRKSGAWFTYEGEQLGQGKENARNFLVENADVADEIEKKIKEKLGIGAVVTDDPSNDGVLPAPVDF

[3] = molecular target: T3, Apoptotic protease-activating factor 1 (Homo sapiens, UniProt O14727); format: functional
T3 sequence (O14727 whole entry): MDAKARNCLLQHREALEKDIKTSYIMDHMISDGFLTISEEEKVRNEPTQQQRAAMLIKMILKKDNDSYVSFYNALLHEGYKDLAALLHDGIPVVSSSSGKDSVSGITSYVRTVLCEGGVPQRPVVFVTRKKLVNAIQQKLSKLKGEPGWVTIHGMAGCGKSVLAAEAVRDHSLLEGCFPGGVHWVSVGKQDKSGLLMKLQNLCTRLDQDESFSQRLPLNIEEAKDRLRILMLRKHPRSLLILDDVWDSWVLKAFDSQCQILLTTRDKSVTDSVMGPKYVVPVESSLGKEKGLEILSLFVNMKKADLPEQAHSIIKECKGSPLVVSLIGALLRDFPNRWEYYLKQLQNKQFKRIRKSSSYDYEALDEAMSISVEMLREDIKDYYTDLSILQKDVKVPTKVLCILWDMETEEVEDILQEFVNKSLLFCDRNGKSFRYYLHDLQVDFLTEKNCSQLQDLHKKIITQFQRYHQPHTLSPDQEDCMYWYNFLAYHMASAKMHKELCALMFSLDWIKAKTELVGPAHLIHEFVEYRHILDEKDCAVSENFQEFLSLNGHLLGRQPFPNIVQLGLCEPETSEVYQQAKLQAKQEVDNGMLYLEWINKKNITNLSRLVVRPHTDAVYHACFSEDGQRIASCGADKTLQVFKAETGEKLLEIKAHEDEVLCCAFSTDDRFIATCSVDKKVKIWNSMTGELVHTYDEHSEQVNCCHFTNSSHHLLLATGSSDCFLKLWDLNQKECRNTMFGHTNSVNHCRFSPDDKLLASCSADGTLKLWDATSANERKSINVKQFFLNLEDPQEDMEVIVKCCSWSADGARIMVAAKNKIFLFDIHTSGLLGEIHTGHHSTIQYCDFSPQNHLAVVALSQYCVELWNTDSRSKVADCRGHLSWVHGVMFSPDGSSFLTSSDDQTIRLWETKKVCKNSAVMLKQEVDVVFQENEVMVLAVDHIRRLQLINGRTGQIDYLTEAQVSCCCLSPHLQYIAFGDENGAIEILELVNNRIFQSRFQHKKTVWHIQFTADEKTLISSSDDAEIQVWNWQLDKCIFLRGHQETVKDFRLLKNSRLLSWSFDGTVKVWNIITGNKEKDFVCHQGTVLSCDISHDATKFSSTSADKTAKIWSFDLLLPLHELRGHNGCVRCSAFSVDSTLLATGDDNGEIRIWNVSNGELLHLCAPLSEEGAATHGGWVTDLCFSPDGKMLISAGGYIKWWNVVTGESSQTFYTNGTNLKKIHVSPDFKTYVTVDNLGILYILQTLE

O=C(Nc1ccccc1Cl)/C(Cl)=C(\Cl)[S+]([O-])c1ccccc1 (stereo not given)
active: EC50 ([1]; Streptococcus sp. 'group A') 1.53 µM | AC50 [2] 2.7 µM | EC50 (Protein RecA) 0.935 µM

O=C(NC1(O)C(=O)c2ccccc2C1=O)c1ccccc1
active: AC50 [2] 7.72 µM | IC50 [3] 3.22 µM | EC50 (Protein RecA) 16.4 µM

Cc1cc(C)nc(/N=c2/ssnc2Cl)c1
active: IC50 [3] 2.9 µM

Cc1ccc(C)c(S(=O)(=O)/N=C2\C=C(NS(=O)(=O)c3ccccc3)C(=O)c3ccccc32)c1
active: AC50 [2] 2.17 µM | IC50 [3] 12 µM | EC50 (Protein RecA) 2.25 µM

CCCCCCCCCCCCCCCCn1cc[n+](C)c1
active: EC50 [1] 1.97 µM | EC50 ([1]; Streptococcus sp. 'group A') 1.72 µM | AC50 [2] 3.37 µM and 3.76 µM | IC50 [3] 22.2 µM and 21.1 µM | EC50 (Protein RecA) 9.84 µM and 8.55 µM
